Measurements from patent US11767298B2, “Substituted benzimidazoles as inhibitors of transforming growth factor-β kinase” (Duke University, priority 2016, dated 2023).

Tests used:
[1] = target: MINK1 (Homo sapiens, UniProt Q8N4C8); assay: Kinase profiling (Dundee), MINK1; assay type: biochemical
Experimental: (§1) Kinase selectivity profiling. The selectivity profile of HS-206 to inhibit mammalian kinases was tested against a panel of 140 kinases at a single concentration of 10 μM. Tests were performed using a radiolabeld (^33P-ATP) filter-binding assay at the International Centre for Kinase Profiling at the University of Dundee, UK (http://www.kinase-screen.mrc.ac.uk/).
(§2) This panel contains members of all major kinase families, including tyrosine kinases (TK), tyrosine kinase-like (TKL), sterile serine/threonine (STE), and CDK/MAPK/GSK/CLK (CMGC). […] For these kinases, IC50 values were determined (Table 1).

[2] = target: GCK (Homo sapiens, UniProt Q12851); assay: Kinase profiling (Dundee), GCK; assay type: biochemical
Chain of GCK (Q12851 whole entry): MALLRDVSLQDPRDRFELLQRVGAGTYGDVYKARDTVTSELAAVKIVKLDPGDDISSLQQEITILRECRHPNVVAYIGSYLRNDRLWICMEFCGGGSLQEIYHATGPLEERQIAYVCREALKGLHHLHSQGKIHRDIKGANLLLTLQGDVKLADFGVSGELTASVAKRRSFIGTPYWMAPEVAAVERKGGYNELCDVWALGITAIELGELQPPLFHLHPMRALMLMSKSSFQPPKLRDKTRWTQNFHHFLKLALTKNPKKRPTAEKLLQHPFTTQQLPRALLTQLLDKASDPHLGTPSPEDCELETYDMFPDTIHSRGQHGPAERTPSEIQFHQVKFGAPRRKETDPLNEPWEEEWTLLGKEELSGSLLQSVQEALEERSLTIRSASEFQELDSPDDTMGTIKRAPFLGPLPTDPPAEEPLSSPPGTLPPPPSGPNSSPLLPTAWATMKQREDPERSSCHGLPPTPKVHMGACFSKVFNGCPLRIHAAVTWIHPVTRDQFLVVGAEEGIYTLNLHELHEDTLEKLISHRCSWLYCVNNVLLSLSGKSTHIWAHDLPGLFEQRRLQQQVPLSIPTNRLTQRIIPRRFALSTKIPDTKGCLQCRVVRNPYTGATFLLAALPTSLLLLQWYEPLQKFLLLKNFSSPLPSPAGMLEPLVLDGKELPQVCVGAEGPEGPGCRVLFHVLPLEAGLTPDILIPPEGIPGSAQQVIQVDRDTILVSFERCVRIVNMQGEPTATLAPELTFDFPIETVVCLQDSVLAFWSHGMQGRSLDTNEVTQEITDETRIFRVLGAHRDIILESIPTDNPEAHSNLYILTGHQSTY
Experimental: as §1, §2

[3] = target: GFP-PfPK9 (Plasmodium falciparum, UniProt Q8IEG4); assay: ATP-competitive binding assay (ATP-sepharose pull-down, FLECS); conditions: GFP-PfPK9; Kd calculated from EC50 of ATP pull-down dose-response; read-out: Kd, app
Chain of GFP-PfPK9 (Q8IEG4 entry or part of it): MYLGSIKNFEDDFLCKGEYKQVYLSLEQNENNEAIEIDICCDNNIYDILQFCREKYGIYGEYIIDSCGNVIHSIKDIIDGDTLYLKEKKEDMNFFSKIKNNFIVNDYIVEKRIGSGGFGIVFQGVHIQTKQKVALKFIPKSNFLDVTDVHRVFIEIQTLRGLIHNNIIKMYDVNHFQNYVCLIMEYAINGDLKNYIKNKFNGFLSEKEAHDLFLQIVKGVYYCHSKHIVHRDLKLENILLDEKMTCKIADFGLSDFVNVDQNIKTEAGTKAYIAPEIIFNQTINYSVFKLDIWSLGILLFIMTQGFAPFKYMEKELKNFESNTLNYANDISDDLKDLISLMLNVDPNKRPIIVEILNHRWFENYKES
Experimental: Primary small-molecule screen. A small-molecule screen was performed similar to a previously reported fluorescence linked enzyme chemoproteomic strategy (FLECS). Briefly, HEK293-GFP-PfPK9 cells were grown in 182-cm^2 tissue culture flasks (Genesee Scientific) and harvested at ˜80% cell confluency. Before assays the culture medium was aspirated, cells were rinsed with ice cold PBS and then they were removed with a cell scraper. Cells were pelleted by centrifugation (2,000 rpm, 4° C., 2 min) and immediately lysed for assays. The pellet was suspended in buffer A (25 mM HEPES, pH 7.4, 150 mM NaCl, 60 mM MgCl2, 1 mM DTT) with 1 μM microcystin, 0.1% Triton X-100 plus a Roche Complete protease inhibitor tablet and then placed on ice for 30 min to facilitate lysis. The supernatant was collected after centrifugation (4,300 rpm, 4° C., 5 min) and used in subsequent screening and titrations experiments. For screening, the supernatant was added to ATP-sepharose beads (1:1) and incubated with agitation at 4° C. for at least 1 hr to allow binding. Following this incubation, the mixture was centrifuged, the ATP resin was washed with 9 column volumes of buffer A with 1 M NaCl and then 9 column volumes of buffer A. The ATP-sepharose medium was reconstituted as a 1:1 slurry with buffer A and then added to 96-well filter plates (50 μL/well) (Corning #3505) using a multichannel pipette (Rainin). The filter plate was on top of black 96-well catch plates (Corning #3915). An ATP dilution series (1-200 mM) was added to each plate as a positive control and DMSO was the negative control. Compounds and controls were all added to 50 μL per well in buffer A. For screening, compounds were tested in singlicate at 500 μM. The final DMSO concentration in every well was 5%. The fluorescence intensity in each well was measured on an EnVision system. Data analyses of screens were carried out in EXCEL (Microsoft, Corp.) and actives were identified as 2×background signal.
All screening positives that were verified with Western blot analysis were purchased from Enamine or Vitas-M laboratory. The purity of compounds 1-5 (shown below) was verified by high-resolution MS (Agilent). Compounds were tested in 8-point dose-response (0-500 μM) experiments in duplicate, essential as described above. The fluorescence intensity in each well was measured using an EnVision system. Dose-response analysis was performed with GraphPad Prism to acquire EC50 values. Determined EC50 values were used to calculate the observed PfPK9 Kd and reported values are the average of 2-3 independent experiments.
Stable cell line generation. The P. falciparum PK9 gene (PlasmoDB accession #PF3D7_1315100) was cloned into the pEGFP-C1 mammalian expression vector (Clontech) in frame with a […] GFP tag. For screening, HEK293 cells were transfected with the resulting PfPK9-pEGFP-C1 vector to generate HEK293-GFP-PfPK9 expressing cells using X-tremeGENE HP transfection reagent (Roche) per the manufacturer instructions. Briefly, the culture medium was replaced at 48 hours post-transfection with medium supplemented with 1 mg/mL G418 sulfate (Life Technologies) to select for stably transfected cells. Following stable cell selection, fluorescence activated cell sorting (FACS) was used to enrich for GFP-PfPK9 expressing cells. Subsequently, FACS sorted HEK293-GFP-PfPK9 cells were cultured with medium supplemented with 0.5 mg/mL G418 sulfate for all following experiments. Protein expression was verified by Western blot analysis probing for anti-GFP and by fluorescence intensity using an EnVision (PerkinElmer) system.
All 14 positive molecules were also tested for their binding affinity to PfPK9 using an optimized ATP-competitive binding assay. EC50 values ranging from low μM to low mM were observed and these EC50 values were used to derive dissociation constants as described previously. […]

[4] = system: Huh7 cells; assay: Huh7 cell viability / cytotoxicity; assay type: cell-based, human; conditions: concentrations up to 200 μM
Experimental: Cell-based anti-Plasmodium assays. For liver stage assays, 15,000 HepG2 or 8,000 Huh7 cells/well were added to 384-well microtiter plates using a multichannel pipette (Rainin). […] DMSO was used as the negative control. Following compound incubation at 37° C. for ˜1 hr, harvested luciferase-expressing P. berghei ANKA sporozoites were added to the plates at a density of 3,000 sporozoites/well. P. berghei ANKA sporozoites were obtained from harvesting the salivary glands of infected A. stephensi mosquitoes. The plates were spun for 10 min at 1,000 rpm, and then incubated at 37° C. for ˜45 hrs. […] After ˜45 hours at 37° C., liver cell viability was assessed using CellTiter-Fluor (Promega) and then parasite load was determined using Bright-Glo (Promega). The relative fluorescence and luminescence signal intensity of each well was evaluated with an EnVision System. The luminescence signal in the presence of compounds was normalized to the negative control (DMSO). Dose-response analysis was performed with GraphPad Prism to yield the reported EC50 values.
(§3) Specifically, their ability to inhibit P. berghei infection in two human hepatoma cell lines (HepG2 and Huh7) as well as cytotoxicity against HepG2 and Huh7 cells was determined as described above. Liver cell cytotoxicity was evaluated with two different commercially available assays, one that tests for intracellular protease activity with a fluorescence reporter and another that relies on the luminescent detection of total ATP.

[5] = system: HepG2 cells; assay: HepG2 cell viability / cytotoxicity; assay type: cell-based, human; conditions: HepG2; concentrations up to 200 μM
Experimental: (§4) Cell-based anti-Plasmodium assays. For liver stage assays, 15,000 HepG2 or 8,000 Huh7 cells/well were added to 384-well microtiter plates using a multichannel pipette (Rainin). After 2 hours at 37° C., compounds (0-100 μM) were added to cells in duplicate or triplicate in a final concentration of 1% DMSO. DMSO was used as the negative control. Following compound incubation at 37° C. for ˜1 hr, harvested luciferase-expressing P. berghei ANKA sporozoites were added to the plates at a density of 3,000 sporozoites/well. P. berghei ANKA sporozoites were obtained from harvesting the salivary glands of infected A. stephensi mosquitoes. The plates were spun for 10 min at 1,000 rpm, and then incubated at 37° C. for ˜45 hrs. […] After ˜45 hours at 37° C., liver cell viability was assessed using CellTiter-Fluor (Promega) and then parasite load was determined using Bright-Glo (Promega). The relative fluorescence and luminescence signal intensity of each well was evaluated with an EnVision System. The luminescence signal in the presence of compounds was normalized to the negative control (DMSO). Dose-response analysis was performed with GraphPad Prism to yield the reported EC50 values.
(§5) Anti-Plasmodium activity was evaluated in the parasite's liver stage using a previously reported high-throughput assay. In this assay, luciferase-expressing P. berghei (murine) parasites are used to infect human hepatoma cells (HepG2) and parasite load is assessed with a luminometer subsequent to evaluating HepG2 viability using a commercially available quantification kit that measures intracellular protease activity.
as §3

[6] = target: CLK2 (Homo sapiens, UniProt P49760); assay: Kinase profiling (Dundee), CLK2; assay type: biochemical
Chain of CLK2 (P49760 whole entry): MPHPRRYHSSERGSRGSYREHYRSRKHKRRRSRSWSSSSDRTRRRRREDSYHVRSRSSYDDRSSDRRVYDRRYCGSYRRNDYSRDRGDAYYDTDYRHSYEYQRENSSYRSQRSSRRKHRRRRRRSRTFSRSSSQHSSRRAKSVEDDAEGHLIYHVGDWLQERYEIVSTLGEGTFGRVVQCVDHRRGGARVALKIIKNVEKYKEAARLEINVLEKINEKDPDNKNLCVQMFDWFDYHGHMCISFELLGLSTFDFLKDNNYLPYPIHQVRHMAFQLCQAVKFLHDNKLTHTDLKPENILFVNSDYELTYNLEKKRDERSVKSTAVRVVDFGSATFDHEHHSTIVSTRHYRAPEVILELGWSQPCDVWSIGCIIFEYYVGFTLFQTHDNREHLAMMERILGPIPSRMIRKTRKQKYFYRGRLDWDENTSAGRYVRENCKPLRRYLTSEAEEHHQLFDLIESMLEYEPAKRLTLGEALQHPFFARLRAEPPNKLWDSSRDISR
Experimental: as §1, §2

[7] = target: T1, TAK1 (Homo sapiens, UniProt O43318); assay: Western Blot analysis of PROTAC-treated MDA-MB-231 cells, TAK1; assay type: cell-based
T1 construct: endogenous in cells; host or cells: MDA-MB-231
T1 sequence (O43318 whole entry): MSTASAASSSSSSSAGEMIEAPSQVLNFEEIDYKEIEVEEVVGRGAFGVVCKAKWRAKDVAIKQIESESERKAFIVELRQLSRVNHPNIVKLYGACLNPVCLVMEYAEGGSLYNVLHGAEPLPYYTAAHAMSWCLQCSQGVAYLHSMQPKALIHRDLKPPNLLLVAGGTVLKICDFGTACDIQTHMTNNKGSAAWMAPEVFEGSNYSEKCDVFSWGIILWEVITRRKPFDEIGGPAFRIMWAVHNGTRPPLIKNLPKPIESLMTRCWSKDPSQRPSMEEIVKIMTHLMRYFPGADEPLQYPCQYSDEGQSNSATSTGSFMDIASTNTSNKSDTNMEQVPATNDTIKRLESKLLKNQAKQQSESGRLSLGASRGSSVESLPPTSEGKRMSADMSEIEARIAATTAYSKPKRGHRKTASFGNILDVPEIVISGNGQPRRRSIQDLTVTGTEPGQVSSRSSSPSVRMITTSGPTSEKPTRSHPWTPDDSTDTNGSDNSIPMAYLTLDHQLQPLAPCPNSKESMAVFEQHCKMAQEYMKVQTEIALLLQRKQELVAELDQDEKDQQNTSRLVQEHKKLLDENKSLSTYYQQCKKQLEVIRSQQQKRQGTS
Text: TAK1 is an Hsp90 client protein, which is why its expression is likely affected in these samples. […] This effect has previously been described as prozone effect. At high PROTAC concentrations, both E3 ligase and protein are saturated individually with PROTAC, so that the complex of ligase and protein can no longer be formed.

[8] = system: PfPK9; assay: UBC13 phosphorylation by PfPK9 (ADP luminescence assay); assay type: biochemical, P. falciparum; conditions: compared to DMSO
Experimental: Recombinant protein expression and enzyme activity assay. Recombinant GST-tagged PfPK9 was expressed in E. coli BL21(DE3) cells, purified to homogeneity, and the GST tag was cleaved with PreScission Protease (GE Healthcare). To test for inhibition of PfPK9, the ADP detection assay ADP-Glo (Promega) was used to determine ATPase activity of PfPK9 in the presence of the PfUBC13 protein substrate when treated with compounds 1 and 5. Approximately 500 nM PfPK9 was incubated with either compound (10 μM or 500 μM) for 5 min at RT in buffer containing 40 mM Tris, pH 7.5, 20 mM MgCl2, 2 mM MnCl2 and 1 mM DTT prior to assay initiation with 100 μM ATP. The assay was performed in white low-volume 384-well plates (Corning #3824) in triplicate. The assay plate was sealed and subsequently incubated for 8 hrs at 37° C. before ADP detection per manufacturer instructions. The final assay volume was 5 μL with a final concentration of 1% DMSO. A negative control was performed in 1% DMSO and heat inactivated PfPK9 (80° C. for 5 min) was used as a positive control. The luminescence intensity in each well was measured on an EnVision system. Data were normalized to the average luminescence signal of the negative control to provide relative ADP concentrations and graphs were constructed in GraphPad Prism. Data analyses were conducted from three independent experiments. […]

[9] = system: P. berghei; assay: Liver stage parasite load, luciferase-expressing P. berghei in Huh7 cells; assay type: cell-based, Plasmodium berghei ANKA; conditions: Huh7 host cells, read-out: IC50 Liver state (Huh7)
Experimental: as §4, §3

[10] = system: K63-linked ubiquitination; assay: Western blot for K63-linked ubiquitination in Plasmodium blood stage; assay type: cell-based, P. falciparum; conditions: 30 μM, 24 hr, blood stage parasites
Experimental: P. falciparum asexual blood-stage culture. P. falciparum 3D7 isolate was maintained under standard conditions in complete culturing medium [10.44 g/L RPMI 1640 (Invitrogen), 5.94 g/L HEPES (Invitrogen), 50 mg/L hypoxanthine (Sigma), 2.02 g/L sodium bicarbonate (Sigma), 5 g/L albuMAX II (Invitrogen), 25 mg/L gentamicin (Sigma), pH 7.2]. Parasite cultures were supplied with human red blood cells (Gulf Coast Regional Blood Center) at 1% hematocrit. To obtain synchronous cultures, Plasmodium parasites (at least 50% parasites were at the early-ring stage) were pelleted at 300×g for 7 min using a low brake setting and treated with 25 volume 5% D-sorbitol (Sigma) at 37° C. for 10 min. Treated parasites were then harvested and washed with 25 volume of complete culturing medium using the aforementioned centrifugation protocol, and diluted with the complete medium to 1% hematocrit to maintain the parasite culture at 37° C. and 5% CO2.
Protein extraction and Western blot for K63-linked ubiquitination in Plasmodium blood stage. […] Total protein lysates were heated in SDS loading buffer for 5 min at 80° C., analyzed on 4-20% Tris-Glycine polyacrylamide gels (Novex, Life Technologies) and subsequently transferred to nitrocellulose membranes. […]

[11] = system: P. berghei; assay: Liver stage parasite load, luciferase-expressing P. berghei in HepG2 cells; assay type: cell-based, Plasmodium berghei ANKA; conditions: HepG2 host cells
Experimental: as §4, §5, §3

Chain of MINK1 (Q8N4C8 whole entry): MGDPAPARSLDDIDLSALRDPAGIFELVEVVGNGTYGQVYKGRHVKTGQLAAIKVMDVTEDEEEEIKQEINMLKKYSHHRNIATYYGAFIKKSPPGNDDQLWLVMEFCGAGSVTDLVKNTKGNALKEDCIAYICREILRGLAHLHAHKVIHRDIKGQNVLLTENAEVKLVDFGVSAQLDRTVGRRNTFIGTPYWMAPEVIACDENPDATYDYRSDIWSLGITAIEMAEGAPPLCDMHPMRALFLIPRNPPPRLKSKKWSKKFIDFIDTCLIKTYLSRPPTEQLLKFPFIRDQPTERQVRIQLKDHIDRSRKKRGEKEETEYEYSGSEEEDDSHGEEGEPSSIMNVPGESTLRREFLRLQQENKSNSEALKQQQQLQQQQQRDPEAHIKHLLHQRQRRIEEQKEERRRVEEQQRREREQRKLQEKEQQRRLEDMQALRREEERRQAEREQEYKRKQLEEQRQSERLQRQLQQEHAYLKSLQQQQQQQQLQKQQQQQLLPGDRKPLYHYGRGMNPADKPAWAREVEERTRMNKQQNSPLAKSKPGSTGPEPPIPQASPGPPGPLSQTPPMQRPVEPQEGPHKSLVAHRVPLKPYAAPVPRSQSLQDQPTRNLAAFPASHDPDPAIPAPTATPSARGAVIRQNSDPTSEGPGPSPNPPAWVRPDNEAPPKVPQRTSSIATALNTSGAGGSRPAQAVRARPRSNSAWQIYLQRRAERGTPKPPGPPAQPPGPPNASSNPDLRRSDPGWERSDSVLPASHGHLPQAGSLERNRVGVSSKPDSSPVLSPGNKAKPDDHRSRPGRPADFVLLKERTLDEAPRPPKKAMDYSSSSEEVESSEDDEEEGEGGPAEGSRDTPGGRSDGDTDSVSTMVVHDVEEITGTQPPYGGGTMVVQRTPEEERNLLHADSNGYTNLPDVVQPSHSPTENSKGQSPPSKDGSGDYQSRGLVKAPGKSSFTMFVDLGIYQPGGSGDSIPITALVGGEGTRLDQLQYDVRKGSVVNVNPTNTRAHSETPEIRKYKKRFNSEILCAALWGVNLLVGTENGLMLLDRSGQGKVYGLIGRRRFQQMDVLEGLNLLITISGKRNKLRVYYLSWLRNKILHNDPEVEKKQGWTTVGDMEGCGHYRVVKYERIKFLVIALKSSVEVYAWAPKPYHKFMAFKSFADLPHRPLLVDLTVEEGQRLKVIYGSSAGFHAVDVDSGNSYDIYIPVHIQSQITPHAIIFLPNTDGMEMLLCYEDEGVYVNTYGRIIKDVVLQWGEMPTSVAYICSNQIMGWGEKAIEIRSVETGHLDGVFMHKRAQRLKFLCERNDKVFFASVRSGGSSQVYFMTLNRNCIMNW

Structure (SMILES) | IC50 [1] [µM] | IC50 [2] [µM] | Kd [3] [µM] | effect on liver cell viability [4] | effect on liver cell viability [5] | IC50 [6] [µM] | protein levels (TAK1) ([7]; 0.1 μM) | protein levels (TAK1) ([7]; higher concentrations) | UBC13 phosphorylation by PfPK9 [8] | IC50 ([9]; Plasmodium berghei, Huh-7, parasite load) [µM] | IC50 ([9]; parasite load) [µM] | K63-linked ubiquitination [10] | IC50 ([11]; Plasmodium berghei, HepG2, parasite load) [µM] | IC50 ([11]; parasite load) [µM]
CCCn1/c(=N/C(=O)c2cccc(C(N)=O)c2)[nH]c2ccccc21 [HS-206 (1), (E)-N-(1-Propyl-1,3-dihydro-2H-benzo[d]imidazol-2-ylidene)isophthalamide] | 1.9 ± 1 | 0.43 ± 0.04 | ~0.2 | did not affect liver cell viability even at 200 μM | did not affect liver cell viability even at 200 μM | 0.43 ± 0.04 | – | – | – | – | – | – | – | –
CCCn1/c(=N/C(=O)c2cccc(C(N)=O)c2)[nH]c2cc(/C=C/C(=O)NCCCOCCOCCOCCOCCOCCCNc3cccc4c3C(=O)N(C3CCC(=O)NC3=O)C4=O)ccc21 (stereo not shown) [HS-237] | – | – | – | – | – | – | reduction in protein levels | no effect | – | – | – | – | – | –
Cc1nc(-c2cccs2)c(CCC(=O)Nc2cccc3cccnc23)s1 [compound 5] | – | – | – | neither compound 4 or 5 had any significant effects on cell viability | neither compound 4 or 5 had any significant effects on cell viability | – | – | – | significantly decreased | 9 | 8.5 | decreased K63-linked ubiquitination in blood stage parasites albeit to a lesser extent than compound 1 | 10 | 9.7
